4 compounds from paper PMC8578629, “Photoactivated cell-killing amino-based flavylium compounds” (Scientific Reports, 2021) can be followed below.

Each structure is given as a SMILES string.

The subject of data set [1] is HaCaT cells. As to the kind of experiment: Cellular uptake by HaCaT cells (overall uptake, adsorption/absorption ratio, kinetics). The note with it: for % Uptake ± SEM: 4 h; for Uptake amount, range over the initial concentrations: 4 h incubation, 6.25–100 μM. The data set is classed as in vitro ADME, human. As to the method:
The cellular uptake of the different compounds by HaCaT cells was determined following the protocol: cells were seeded at a density of 4 × 10^4 cells/well onto 12-well plates (1060 μL per well) and after 24 h the compounds were added to the plates in different concentrations (6.25–100 μM; 1060 μL per well) and incubated for a period of 4 h at 37 °C in an atmosphere of 5% CO2 and in the presence of DMEM with 2% FBS. Then, the medium with the compounds was removed, cells are washed with PBS to remove any extracellular compounds and the same volume of DMSO (1060 µL) was added to cells. After 60 min in the dark, the plates were submitted to fluorescence determination. The fluorescence intensity of each well was then recorded at the different wavelength pairs specific for each tested compound (ex/em) in a FlexStation 3 Multi-Mode Microplate Reader. The fluorescence values were then used to plot into the corresponding calibration curves and the uptake amounts were determined. • Fl577/658 = 19.734 × Conc (7NEt24′NMe2), μM; Fl577/769 = 0.2869 × Conc (7NEt2st4′NMe2), μM; • Fl577/635 = 24.556 × Conc (7NEt24′NH2), μM; Fl577/635 = 42.851 × Conc (PpIX), μM;
The ratio between the absorption and surface adsorption by HaCaT for each compound was performed. Cells were seeded in the same conditions as previously stated. After 24 h, compounds were added to the plates at the concentration of 100 μM (1060 μL per well) and incubated for a period of 4 h at 37 °C in an atmosphere of 5% CO2 and in the presence of DMEM with 2% FBS. After incubation, the medium with the compounds was removed and Dulbecco’s phosphate buffer (DPBS) was added (1060 μL per well). The fluorescence intensity of each well was then determined at the different wavelength pairs specific for each tested compound (ex/em) using a FlexStation 3 Multi‐Mode Microplate Reader. After this, 300 μL of Trypan Blue was added ([…]) to each well and the fluorescence intensity was determined in the same conditions. Cells with DPBS and cells with DPBS + Trypan Blue were used as controls. • Fl577/658 = 19.734 × Conc (7NEt24′NMe2), μM; Fl577/769 = 0.2869 × Conc (7NEt2st4′NMe2), μM; • Fl577/635 = 24.556 × Conc (7NEt24′NH2), μM; Fl577/635 = 42.851 × Conc (PpIX), μM;
The cellular uptake kinetics of the different compounds by HaCaT cells was determined as follows: cells were seeded at a density of 4 × 10^4 cells/well onto 12-well plates (1060 μL per well) and after 24 h compounds were added to the plates at a concentration of 100 μM (1060 μL per well) and incubated for different time periods (15, 30, 60, 120, 180 and 240 min) at 37 °C in an atmosphere of 5% CO2 and in the presence of DMEM with 2% FBS. After each time period, the medium with the compounds was removed and DMSO was added to cells. After 60 min in the dark the plates were submitted to fluorescence determination. The fluorescence intensity of each well was then determined at the different wavelength pairs specific for each tested compound (ex/em) (FlexStation 3 Multi-Mode Microplate Reader). The fluorescence values were then used to plot into the corresponding calibration curves and the uptake amounts were determined.

Data set [2] can be described thus: Oxygen singlet production by Singlet Oxygen Sensor Green assay. The note with it: compound 25 μM, after white light irradiation 79.2 J cm^−2. As to the method:
The production of singlet oxygen by the different amino-based compounds in solution was determined as follows: a stock solution of Singlet Oxygen Sensor Green was prepared at 5 mM in methanol (MeOH). Working solutions of the probe were prepared at 2 mM in 100 mM pH 7.5 Tris buffer and in 100 mM pH 7.5 Tris buffer with 10 mM of Sodium Azide. The compounds were then prepared at a stock concentration of 500 μM and the working solutions were prepared in 100 mM pH 7.5 Tris buffer and in 100 mM pH 7.5 Tris buffer with 10 mM of Sodium Azide. 1 μL of Singlet Oxygen Sensor Green working solutions and 100 μL of compounds solution were mixed to a final volume of 1000 μL (in 100 mM pH 7.5 Tris buffer or in 100 mM pH 7.5 Tris buffer with 10 mM of Sodium Azide). 100 μL of each solution was then added to a 96-well black plate and 100 μL of Deuterium Oxide was added for a final concentration of 1 μM Singlet Oxygen Sensor Green and 25 μM for the different amino-based compounds. The fluorescence was then registered in a spectrofluorometer using excitation/emission of 488/525 nm. After this procedure, the wells were irradiated with a white light source with a total of 79.2 J cm^−2, corresponding to a total irradiation time of 1 h (6 pulses of 10 min) and then, the fluorescence determined using the same excitation/emission pair. As a positive control, Methylene Blue was used at a final concentration of 10 μM. The oxygen singlet production methodology was performed in a dark room.

Data set [3] concerns HaCaT cells. As to the kind of experiment: Reactive oxygen species production (DCF-DA). The note with it: 25 μM, 6.6 J cm^−2, versus control cells. The data set is classed as cell-based, human. The procedure:
Cells reactive oxygen species (ROS) production was evaluated following the standard method. Briefly, cells were seed at a density of 4 × 10^4 cells/mL onto 96 well plates and after 24 h the compounds were added at 25 μM (non-toxic concentration) and the same previous procedure for the photoactivation assays was followed. After that, cells were washed twice in Hank’s Buffered Saline Solution (HBSS) and incubated with 100 μL of 50 μM 2′,7′-dichlorodihydrofluorescein diacetate (DCF‐DA) for 30 min in the same previous conditions. For positive control, cells were treated with 100 μM H2O2 for 30 min prior to the addition of DCF-DA. Cells were then washed twice with HBSS and incubated with fresh DMEM medium for 24 h. After this period, the fluorescence intensity at […] (ex/em) was determined in a FlexStation 3 Multi-Mode Microplate Reader.

Data set [4] concerns HaCaT cells. Briefly: Photodynamic therapy mechanism determination with type I/type II quenchers. The data set is classed as cell-based, human. The note with it: compound 50 μΜ, light 6.6 J cm^−2. The procedure:
For the determination of the photoactivation mechanism that yielded to cell death, cells were seeded as previously described for the photoactivation assays. […] The incubation proceeded for a time period of 4 h. After this, solutions containing the compounds were removed from cells and fresh medium containing the different quenchers were added to cells. Cells were irradiated for 10 min at an intensity of 50%, at room temperature (making a total energy exposition of 6.6 J cm^−2). The dark treatment was done by placing the plates for 10 min in a dark box at room temperature. After this, the medium was removed and replaced by fresh medium without any additive. The 96 well plates were then placed in an incubator at 37 °C in an atmosphere of 5% CO2 for 24 h. Finally, the Alamar Blue assay was performed to determine cell survival as previously described.

As for `C=CC1=C(C)c2cc3[nH]c(cc4nc(cc5[nH]c(cc1n2)c(C)c5CCC(=O)O)C(CCC(=O)O)=C4C)c(C)c3C=C` [PpIX, protoporphyrin IX, reference compound], the “% Uptake ± SEM” value in the data set with HaCaT cells [1] (initial concentration 6.25 μM) is 0.694 ± 0.110%; with HaCaT cells [1] (initial concentration 12.5 μM), 0.615 ± 0.050%; in the data set with HaCaT cells [1] (initial concentration 25 μM), 0.508 ± 0.021%; in the data set with HaCaT cells [1] (initial concentration 50 μM), 0.667 ± 0.040%; with HaCaT cells [1] (initial concentration 100 μM) it was 0.659 ± 0.037%. Besides, in data set [2], the “^1O2 production” value was 263.3 ± 12.28%. The “ROS production upon white light irradiation (in words)” value in the data set with HaCaT cells [3] is given as “no significant differences”. Also, the “Increase of cell survival with quencher” value in the data set on HaCaT cells [4] (D-mannitol 10 mM (type I)) stood at 27%; with HaCaT cells [4] (L-cysteine 10 mM (type I)), 26%; in the data set on HaCaT cells [4] (L-histidine 10 mM (type II)), 42%; with HaCaT cells [4] (sodium azide 10 mM (type II)), 37%.
As for `CCN(CC)c1ccc2ccc(/C=C/c3ccc(N(C)C)cc3)[o+]c2c1` [7NEt2st4′NMe2, 7-(diethylamino)-2-(4′-dimethylaminostyryl)-benzopyrylium], in the data set on HaCaT cells [1], the “Uptake amount, range over the initial concentrations” value was 3.564–5.830%. Also, the “% Uptake ± SEM” value is given as 4.448 ± 0.876% in the data set with HaCaT cells [1] (initial concentration 6.25 μM); 4.236 ± 0.628% in the data set with HaCaT cells [1] (initial concentration 12.5 μM); 3.564 ± 0.613% with HaCaT cells [1] (initial concentration 25 μM); 4.091 ± 0.552% in the data set with HaCaT cells [1] (initial concentration 50 μM); 5.830 ± 1.569% with HaCaT cells [1] (initial concentration 100 μM). Also, in data set [2], the “^1O2 production” value was determined as 181.2 ± 22.23%. For the same compound, in the data set with HaCaT cells [3], the “ROS production upon white light irradiation (in words)” value is recorded as “positive modulation of ROS production”. Besides, the “Increase of cell survival with quencher” value is on record as 22% in the data set on HaCaT cells [4] (D-mannitol 10 mM (type I)), 16% in the data set on HaCaT cells [4] (L-cysteine 10 mM (type I)), 46% in the data set on HaCaT cells [4] (L-histidine 10 mM (type II)) and 31% with HaCaT cells [4] (sodium azide 10 mM (type II)).
With `CCN(CC)c1ccc2ccc(-c3ccc(N(C)C)cc3)[o+]c2c1` [7NEt24′NMe2, 7-diethylamino-4′-dimethylamino-benzopyrylium], in the data set on HaCaT cells [1], the “Uptake amount, range over the initial concentrations” value is recorded as 2.745–4.156%. In addition, the “% Uptake ± SEM” value is on record as 3.416 ± 0.629% in the data set with HaCaT cells [1] (initial concentration 6.25 μM); 4.156 ± 0.764% with HaCaT cells [1] (initial concentration 12.5 μM); 2.745 ± 0.504% with HaCaT cells [1] (initial concentration 25 μM); 3.660 ± 0.831% in the data set on HaCaT cells [1] (initial concentration 50 μM); 3.523 ± 0.695% with HaCaT cells [1] (initial concentration 100 μM). In data set [2], the “^1O2 production” value is recorded as 131.2 ± 3.90%. Further, the “ROS production upon white light irradiation (in words)” value in the data set with HaCaT cells [3] is reported as “positive modulation of ROS production”. Also, the “Increase of cell survival with quencher” value with HaCaT cells [4] (D-mannitol 10 mM (type I)) was determined as 6%; in the data set with HaCaT cells [4] (L-cysteine 10 mM (type I)), 13%; in the data set on HaCaT cells [4] (L-histidine 10 mM (type II)) it was 44%; in the data set on HaCaT cells [4] (sodium azide 10 mM (type II)) it was 27%.
As to `CCN(CC)c1ccc2ccc(-c3ccc(N)cc3)[o+]c2c1` [7NEt24′NH2, 4′-amino-7-diethylamino-benzopyrylium], the “Uptake amount, range over the initial concentrations” value with HaCaT cells [1] is reported as 1.229–2.192%. Also, the “% Uptake ± SEM” value in the data set on HaCaT cells [1] (initial concentration 6.25 μM) stood at 1.229 ± 0.296%; in the data set with HaCaT cells [1] (initial concentration 12.5 μM), 1.828 ± 0.419%; in the data set with HaCaT cells [1] (initial concentration 25 μM) it was 1.977 ± 0.581%; in the data set on HaCaT cells [1] (initial concentration 50 μM) it was 2.192 ± 0.662%; with HaCaT cells [1] (initial concentration 100 μM), 1.785 ± 0.383%. Further, the “^1O2 production” value in data set [2] is listed as 173.1 ± 15.73%. Moreover, in the data set with HaCaT cells [3], the “ROS production upon white light irradiation (in words)” value was “positive modulation of ROS production”. Besides, the “Increase of cell survival with quencher” value in the data set on HaCaT cells [4] (D-mannitol 10 mM (type I)) is 14%; in the data set with HaCaT cells [4] (L-cysteine 10 mM (type I)) it was 27%; in the data set on HaCaT cells [4] (L-histidine 10 mM (type II)), 33%; in the data set with HaCaT cells [4] (sodium azide 10 mM (type II)) it was 31%.
